# Laboratory results from patent publication US20240166603A1, “Method of Treating Cancer With Atpenin A5 Derviatives” (Texas Tech University System, priority 2018, published 2024).
# Read-outs that look alike come from different tables or passages of the source. Marks after values point to notes of the source that are not given here.
# Key:
# [1] = test system: PC3 prostate cancer cells under hypoxia; assay: Cell death under hypoxia, microfluidic chip, Annexin V and Sytox Green; conditions: for cell death: 10 μM, hypoxia
# [2] = target: T1, mitochondrial complex II (CII) (Rattus norvegicus, UniProt P21913+Q641Z9+Q6PCT8); assay: Complex II inhibition assay, isolated rat heart mitochondria; conditions: for CII inhibition activity: 100 nM where stated; for LLE (Ligand-Lipophilicity Efficiency): LLE = pIC50-ClogP; for CII IC50 expressed: conversion of the nM value
# T1 sequence (P21913 31-282): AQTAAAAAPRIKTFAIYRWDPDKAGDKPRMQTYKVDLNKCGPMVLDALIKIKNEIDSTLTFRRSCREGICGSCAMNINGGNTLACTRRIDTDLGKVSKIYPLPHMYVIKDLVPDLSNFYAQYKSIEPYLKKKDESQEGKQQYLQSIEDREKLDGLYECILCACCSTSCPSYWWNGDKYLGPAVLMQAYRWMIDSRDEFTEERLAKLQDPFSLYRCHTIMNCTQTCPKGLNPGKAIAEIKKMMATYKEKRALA
# T1 sequence (Q641Z9 30-169 limits assumed): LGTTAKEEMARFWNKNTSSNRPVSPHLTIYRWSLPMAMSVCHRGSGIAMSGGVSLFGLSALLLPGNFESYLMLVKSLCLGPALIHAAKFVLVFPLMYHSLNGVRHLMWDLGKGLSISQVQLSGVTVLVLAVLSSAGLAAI
# T1 sequence (Q6PCT8 57-159): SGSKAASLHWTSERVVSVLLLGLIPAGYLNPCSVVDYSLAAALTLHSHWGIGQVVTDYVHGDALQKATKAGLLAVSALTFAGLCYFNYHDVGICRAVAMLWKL
# T1 sequence (Q920L2 35-656 partner): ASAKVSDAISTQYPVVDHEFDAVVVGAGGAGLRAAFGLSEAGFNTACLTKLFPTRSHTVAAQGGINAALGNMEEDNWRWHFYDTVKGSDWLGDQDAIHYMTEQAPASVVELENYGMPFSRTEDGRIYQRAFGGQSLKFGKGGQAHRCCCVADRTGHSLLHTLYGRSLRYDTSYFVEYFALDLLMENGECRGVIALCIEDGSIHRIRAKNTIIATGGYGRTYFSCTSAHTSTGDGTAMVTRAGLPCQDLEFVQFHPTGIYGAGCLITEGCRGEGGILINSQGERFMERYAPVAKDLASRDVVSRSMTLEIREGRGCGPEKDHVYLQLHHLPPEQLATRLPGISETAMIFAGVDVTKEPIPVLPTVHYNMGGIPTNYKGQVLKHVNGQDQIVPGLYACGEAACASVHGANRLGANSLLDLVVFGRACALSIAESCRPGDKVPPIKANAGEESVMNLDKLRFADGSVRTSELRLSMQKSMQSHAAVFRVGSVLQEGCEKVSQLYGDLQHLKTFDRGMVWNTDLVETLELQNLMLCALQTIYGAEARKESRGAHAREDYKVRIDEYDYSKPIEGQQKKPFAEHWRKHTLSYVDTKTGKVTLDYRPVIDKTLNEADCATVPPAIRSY
# CII = conditions: cited from earlier work
# [3] = target: Complex I (NADH ubiquinone-oxidoreductase) (Mus musculus, UniProt P03888+Q91WD5+Q9DC70); assay: Complex I inhibition assay, mouse cardiac mitochondria; conditions: for Selectivity Ratio (CII:CI): Table 3
# bovine CII = bovine CII (Bos taurus, UniProt P35720+Q3T189+Q95123); conditions: literature [27]; cited from earlier work
# bovine CII, sequence (Q3T189 29-280): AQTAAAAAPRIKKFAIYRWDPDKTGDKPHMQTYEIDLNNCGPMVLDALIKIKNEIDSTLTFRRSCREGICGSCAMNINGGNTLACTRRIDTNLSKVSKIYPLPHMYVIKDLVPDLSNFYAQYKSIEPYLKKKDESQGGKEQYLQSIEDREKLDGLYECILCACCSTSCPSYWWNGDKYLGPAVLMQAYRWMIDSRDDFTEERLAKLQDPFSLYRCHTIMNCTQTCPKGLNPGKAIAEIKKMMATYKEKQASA
# bovine CII, sequence (P35720 30-169): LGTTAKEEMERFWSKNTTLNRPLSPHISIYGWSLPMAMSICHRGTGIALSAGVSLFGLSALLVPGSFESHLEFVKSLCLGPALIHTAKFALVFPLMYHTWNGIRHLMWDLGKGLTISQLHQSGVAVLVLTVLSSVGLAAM
# bovine CII, sequence (Q95123 56-158): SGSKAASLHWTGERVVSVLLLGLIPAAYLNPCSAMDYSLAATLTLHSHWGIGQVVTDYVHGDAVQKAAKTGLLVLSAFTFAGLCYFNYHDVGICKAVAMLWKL
# bovine CII, sequence (P31039 44-665 partner): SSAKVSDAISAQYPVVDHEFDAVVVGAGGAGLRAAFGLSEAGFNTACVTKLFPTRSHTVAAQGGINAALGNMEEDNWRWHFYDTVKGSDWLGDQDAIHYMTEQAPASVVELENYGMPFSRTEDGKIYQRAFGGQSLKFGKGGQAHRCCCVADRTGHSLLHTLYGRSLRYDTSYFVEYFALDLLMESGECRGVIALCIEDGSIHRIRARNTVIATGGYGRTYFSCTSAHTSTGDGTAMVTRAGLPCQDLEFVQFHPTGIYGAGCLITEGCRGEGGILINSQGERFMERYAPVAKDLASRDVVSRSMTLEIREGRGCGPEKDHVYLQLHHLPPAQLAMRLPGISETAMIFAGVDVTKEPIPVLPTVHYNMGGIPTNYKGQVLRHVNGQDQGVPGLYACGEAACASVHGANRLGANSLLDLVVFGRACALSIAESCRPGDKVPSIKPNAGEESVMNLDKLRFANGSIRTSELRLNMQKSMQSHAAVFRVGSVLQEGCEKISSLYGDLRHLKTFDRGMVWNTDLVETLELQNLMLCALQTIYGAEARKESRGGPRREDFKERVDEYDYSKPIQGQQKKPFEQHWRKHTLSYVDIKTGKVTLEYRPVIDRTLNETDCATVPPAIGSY
# 22Rv1 cells = assay: Metabolic parameters, Seahorse XF Extracellular Flux Analyzer; type: cell-based, human; conditions: 48 hour incubation
# Procedure: Next, the inventors determined the effect of complex II inhibition by the developed inhibitors on mitochondrial metabolic processes. The effect of 16c on electron transport parameters of 22Rv1 cells after 48 hour incubation was studied using a Seahorse XF Extracellular Flux Analyzer.
# Assessment of Metabolic Parameters. Changes in oxygen consumption rate were measured using a XF24 Extracellular Flux Analyzer (Seahorse Bioscience, Billerica, MA). 22Rv1 cells were plated in XF24-well plates (40,000 cells/well) and allowed to adapt overnight. Treatments were performed with 16c at concentrations of 1, 10, 20, 30, 50 and 100 μg/mL and incubated for 48 hours. Mito Stress test was performed using oligomycin (10 μM), FCCP (5 μM) and Rotenone/Antimycin A (5 μM) based on the manufacturer's recommended protocol.
# [4] = test system: PC3 prostate cancer cells; assay: Cytotoxicity MTS assay, PC3; conditions: Homo sapiens, 48 h, read-out: PC3 IC50
# in vivo = conditions: 1 mg/kg
# [5] = test system: WPMY-1 prostate stromal cells; assay: Cytotoxicity, WPMY-1 prostate stromal cells; type: cell-based; conditions: Homo sapiens
# [6] = test system: 22Rv1 prostate cancer cells; assay: Cytotoxicity MTS assay, 22Rv1; conditions: for IC50: Homo sapiens, 22Rv1, 48 h, read-out: 22Rv1 IC50; for 22Rv1 IC50: MTS, 48 hours unless otherwise noted; for increase in efficacy relative to Enzalutamide, inhibition of cancer growth in vitro: cell line not given
# 3T3 cells = assay: Cytotoxicity, 3T3 mouse embryonic fibroblast cells; type: cell-based; conditions: NIH3T3
# [7] = test system: DU-145 prostate cancer cells; assay: Cytotoxicity MTS assay, DU-145; conditions: for IC50: Homo sapiens, DU-145, 48 h, read-out: DU-145 IC50
# LNCaP cells = assay: Potentiation of Enzalutamide in LNCaP cells (FIG. 9); type: cell-based
# HEK293 cells = assay: Cytotoxicity MTS assay, HEK293; conditions: for selectivity for prostate cancer cells over HEK293: 16c: DU-145 and 22Rv1, 16k: 22Rv1; for IC50: Homo sapiens, HEK293, 48 h, read-out: HEK293 IC50
# [8] = target: T1, mitochondrial complex II (CII)
# [9] = Table 5, SDH1 and SDH2, percent relative to control
# [10] = read-out: CII IC50, rat heart CII
# [11] = read-out: CII IC50, rat heart mitochondria, mean value of four experiments
structure (smiles),measurement,setting,value
"CCCCCC(O)c1c(O)nc(OC)c(OC)c1O (racemic) [Compound 18, (rac)-3-(1-hydroxyhexyl)-5,6-dimethoxypyridine-2,4-diol]",cytotoxic effect under hypoxia,[1]; up to 10 μM,no cytotoxic effect
same,inhibition of CII at 100 nM concentration,[2],0%
same,CII inhibition activity,[2],no CII inhibition activity
"CCCCCC(O)c1cnc(OC)c(OC)c1O (racemic) [Compound 19, (rac)-5-(1-hydroxyhexyl)-2,3-dimethoxypyridin-4-ol]",inhibition of CII at 100 nM concentration,[2],0%
same,CII inhibition activity,[2],inactive compound
"COc1[nH]c(=O)c(C(=O)[C@@H](C)C[C@H](C)[C@@H](Cl)CCl)c(O)c1OC [Atpenin A5, atpenin A5]",IC50,"CII; literature [20, 23]",3.6 to 10 nM
same,Selectivity Ratio (CII:CI),[3],>3030
same,IC50,[3]; read-out: Complex I IC50,> 10000 nM
same,LLE (Ligand-Lipophilicity Efficiency),[2],5.36
same,IC50,[2]; [10],3.3 nM
same,IC50,[2]; [11],3.3 nM
same,IC50,"[2]; read-out: Complex II IC50, Table 3",3.3 nM
"COc1nc(O)c(C(=O)c2ccco2)c(O)c1OC [Compound 16a, (2,4-dihydroxy-5,6-dimethoxypyridin-3-yl)(furan-2-yl)methanone]",inhibition of CII at 100 nM concentration,[2],0%^e
same,CII inhibition activity,[2],abrogates CII inhibition activity
"CCCCC(=O)c1c(O)nc(OC)c(OC)c1O [Compound 16b, 1-(2,4-dihydroxy-5,6-dimethoxypyridin-3-yl)pentan-1-one]",IC50,bovine CII,96 nM
same,LLE (Ligand-Lipophilicity Efficiency),[2],5.37
same,IC50,[2]; [10],345 nM
same,IC50,[2]; [11],346 nM
"CCCCCC(=O)c1c(O)nc(OC)c(OC)c1O [Compound 16c, 1-(2,4-dihydroxy-5,6-dimethoxypyridin-3-yl)hexan-1-one]",cell death,[1],20%
same,ATP production,22Rv1 cells,inhibition of ATP production
same,basal respiration,22Rv1 cells,reducing basal respiration
same,maximal respiration,22Rv1 cells,reduction of maximal respiration
same,oxygen consumption rate,22Rv1 cells,substantially reduced in a dose-dependent manner
same,IC50,[4],38 µg/mL
same,AUC,in vivo,19.6 ng·h/mL
same,Vd,in vivo,89.5 L/kg
same,half-life,in vivo,103 min
same,AUC(0-inf),"in vivo; AUCinf,obs",8.3 ng·h/mL
same,AUC(0-inf),"in vivo; AUCinf,pred",8.32 ng·h/mL
same,Tmax,in vivo,22.8 min
same,"AUCinf,obs",in vivo; female,23.61 ng·h/mL
same,"AUCinf,pred",in vivo; female,23.63 ng·h/mL
same,t1/2λz,in vivo; female,104 min
same,AUC(0-inf),"in vivo; female, AUCinf,obs",36 ng·h/mL
same,AUC(0-inf),"in vivo; female, AUCinf,pred",36 ng·h/mL
same,Cmax,in vivo; female,140 ng/mL
same,Tmax,in vivo; female,15 min
same,Vssobs,in vivo; male,134.64772 L/kg
same,Vsspred,in vivo; male,129.16994 L/kg
same,t1/2λz,in vivo; male,103 min
same,AUC(0-inf),"in vivo; male, AUCinf,obs",10.7 ng·h/mL
same,AUC(0-inf),"in vivo; male, AUCinf,pred",10.6 ng·h/mL
same,Cmax,in vivo; male,23.9 ng/mL
same,Tmax,in vivo; male,30 min
same,IC50,[5],18.4 µg/mL
same,IC50,[6],11 µg/mL
same,22Rv1 IC50,[6],11 µg/mL
same,"increase in efficacy relative to Enzalutamide, inhibition of cancer growth in vitro",[6],10 fold
same,IC50,3T3 cells,31.8 µg/mL
same,IC50,[7],12 µg/mL
same,Selectivity Ratio (CII:CI),[3],>156
same,effect on Enzalutamide (ENZA) in LNCaP cells,LNCaP cells,potentiates Enzalutamide
same,CII IC50 expressed,[2],0.01723 µg/mL
same,selectivity for prostate cancer cells over HEK293,HEK293 cells,7.4 fold
same,IC50,HEK293 cells,81 µg/mL
same,LLE (Ligand-Lipophilicity Efficiency),[8],5.62
"COc1nc(O)c(C(=O)CCCCOCc2ccccc2)c(O)c1OC [Compound 16d, 5-(benzyloxy)-1-(2,4-dihydroxy-5,6-dimethoxypyridin-3-yl)pentan-1-one]",LLE (Ligand-Lipophilicity Efficiency),[2],3.41
same,IC50,[2]; [11],281 nM
"COc1nc(O)c(C(=O)CCCCO)c(O)c1OC [Compound 16e, 1-(2,4-dihydroxy-5,6-dimethoxypyridin-3-yl)-5-hydroxypentan-1-one]",LLE (Ligand-Lipophilicity Efficiency),[2],6.90
same,IC50,[2]; [11],3730 nM
"CCCCCCC(=O)c1c(O)nc(OC)c(OC)c1O [Compound 16f, 1-(2,4-dihydroxy-5,6-dimethoxypyridin-3-yl)heptan-1-one]",IC50,bovine CII,20 nM
same,LLE (Ligand-Lipophilicity Efficiency),[2],4.57
same,IC50,[2]; [11],282 nM
"CCCCCCCC(=O)c1c(O)nc(OC)c(OC)c1O [Compound 16g, 1-(2,4-dihydroxy-5,6-dimethoxypyridin-3-yl)octan-1-one]",LLE (Ligand-Lipophilicity Efficiency),[2],4.89
same,IC50,[2]; [11],49.1 nM
"CCCCCCCCC(=O)c1c(O)nc(OC)c(OC)c1O [Compound 16h, 1-(2,4-dihydroxy-5,6-dimethoxypyridin-3-yl)nonan-1-one]",LLE (Ligand-Lipophilicity Efficiency),[2],4.93
same,IC50,[2]; [11],15.7 nM
"CCCCCCCCCCC(=O)c1c(O)nc(OC)c(OC)c1O [Compound 16j, 1-(2,4-dihydroxy-5,6-dimethoxypyridin-3-yl)undecan-1-one]",LLE (Ligand-Lipophilicity Efficiency),[2],4.32
same,IC50,[2]; [10],8.6 nM
"CCCCCCCCCCCCC(=O)c1c(O)nc(OC)c(OC)c1O [Compound 16k, 1-(2,4-dihydroxy-5,6-dimethoxypyridin-3-yl)tridecan-1-one]",IC50,[5],10.7 µg/mL
same,IC50,[6],2 µg/mL
same,22Rv1 IC50,[6],2 µg/mL
same,"increase in efficacy relative to Enzalutamide, inhibition of cancer growth in vitro",[6],10 fold
same,IC50,[3],> 10000 nM
same,Selectivity Ratio (CII:CI),[3],>3030
same,IC50,[3]; read-out: Complex I IC50,> 10000 nM
same,LLE (Ligand-Lipophilicity Efficiency),[2],3.76
same,CII IC50 expressed,[2],0.00121 µg/mL
same,selectivity for prostate cancer cells over HEK293,HEK293 cells,17.5 fold
same,IC50,HEK293 cells,35 µg/mL
"CCCCCC(O)c1c(OCOC)nc(OC)c(OC)c1OCOC (stereo not shown) [Compound 17, 1-(5,6-dimethoxy-2,4-bis(methoxymethoxy)pyridin-3-yl)hexan-1-ol]",inhibition of CII at 100 nM concentration,[2],0%
"CCCCCC(=O)c1cnc(OC)c(OC)c1O [Compound 20, 1-(4-hydroxy-5,6-dimethoxypyridin-3-yl)hexan-1-one]",inhibition of CII at 100 nM concentration,[2],0%
same,CII inhibition activity,[2],no activity at 100 nM concentration
"CCCCCC(OC)c1cnc(OC)c(OC)c1O (stereo not shown) [Compound 24, 2,3-dimethoxy-5-(1-methoxyhexyl)pyridin-4-ol]",IC50,[7],> 30 µg/mL
same,growth inhibition of DU-145 cells,[7]; up to 30 μg/mL,no growth inhibition effect
same,inhibition of CII at 100 nM concentration,[2],0%
same,CII inhibition activity,[2],no activity to inhibit CII at 100 nM
"CC1=NS(=O)(=O)c2cc(Cl)ccc2N1 [Diazoxide, diazoxide, reference compound]",IC50,CII; literature,32000 nM
same,LLE (Ligand-Lipophilicity Efficiency),[2],1.85
"COc1cc([C@@H]2c3cc4c(cc3[C@@H](O[C@@H]3O[C@@H]5CO[C@@H](C)O[C@H]5[C@H](O)[C@H]3O)[C@H]3COC(=O)[C@H]23)OCO4)cc(OC)c1O [Etoposide, etoposide, reference compound]",cell death,[1],7%
O=C(O)CC(=O)O [Malonate],IC50,CII; literature,40000 nM
CCCCC(=O)c1c(O)nc(OC)c(OC)c1O [SDH1],value at 100 nM (Control 100%),[9],65.17%
same,value at 1 uM (Control 100%),[9],35.13%
COc1nc(O)c(C(=O)CCCC[P+](c2ccccc2)(c2ccccc2)c2ccccc2)c(O)c1OC [SDH2],value at 100 nM (Control 100%),[9],61.64%
same,value at 1 uM (Control 100%),[9],43.53%
"O=C(CC(=O)C(F)(F)F)c1cccs1 [TFFA, Thenoyltrifluoroacetone]",IC50,CII; literature,30000 nM
"Cc1c(C)c2c(c(C)c1OC(=O)CCC(=O)O)CC[C@@](C)(CCC[C@H](C)CCC[C@H](C)CCCC(C)C)O2 [α-TOS, α-Tocopheryl succinate]",IC50,CII; literature,42000 nM
